# In PubChem BioAssay (NCI):
#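 Dose response: 5 concentrations. Exposure: 48 h. Format: 96-well plates. Endpoint: linear interpolation; highest concentration if not reached. TGI marks complete inhibition of growth.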
# Columns and labels:
# Assay in all cases: growth of human tumour cells (NCI), 48 h
# SF-268 CNS = tested on: SF-268 CNS
# HL-60(TB) leukemia = tested on: HL-60(TB) leukemia
# OVCAR-8 ovarian = tested on: OVCAR-8 ovarian
# SK-OV-3 ovarian = tested on: SK-OV-3 ovarian
# K-562 leukemia = tested on: K-562 leukemia
# EKVX NSCLC = tested on: EKVX NSCLC
# 786-0 renal = tested on: 786-0 renal
# KM12 colon = tested on: KM12 colon
# DMS 273 small cell lung = tested on: DMS 273 small cell lung
# SN12C renal = tested on: SN12C renal
# IGROV1 ovarian = tested on: IGROV1 ovarian
# MALME-3M melanoma = tested on: MALME-3M melanoma
# HCT-15 colon = tested on: HCT-15 colon
# COLO 205 colon = tested on: COLO 205 colon
# SF-539 CNS = tested on: SF-539 CNS
# KM20L2 colon = tested on: KM20L2 colon
# NCI-H226 lung = tested on: NCI-H226 lung
# ACHN renal = tested on: ACHN renal
# RXF 393 renal = tested on: RXF 393 renal
# HOP-92 NSCLC = tested on: HOP-92 NSCLC
# NCI-H460 lung = tested on: NCI-H460 lung
# SW-620 colon = tested on: SW-620 colon
# XF 498 CNS = tested on: XF 498 CNS
# SNB-78 CNS = tested on: SNB-78 CNS
# UACC-257 melanoma = tested on: UACC-257 melanoma
# M14 melanoma = tested on: M14 melanoma
# SNB-75 CNS = tested on: SNB-75 CNS
# NCI-H23 lung = tested on: NCI-H23 lung
# SNB-19 CNS = tested on: SNB-19 CNS
# HT29 colon = tested on: HT29 colon
# LXFL 529 NSCLC = tested on: LXFL 529 NSCLC
# OVCAR-3 ovarian = tested on: OVCAR-3 ovarian
# LOX IMVI melanoma = tested on: LOX IMVI melanoma
# SK-MEL-2 melanoma = tested on: SK-MEL-2 melanoma
# A549 NSCLC = tested on: A549 NSCLC
# CCRF-CEM leukemia = tested on: CCRF-CEM leukemia
# DMS 114 small cell lung = tested on: DMS 114 small cell lung
# RPMI-8226 leukemia = tested on: RPMI-8226 leukemia
# HOP-62 NSCLC = tested on: HOP-62 NSCLC
# MOLT-4 leukemia = tested on: MOLT-4 leukemia
# SR leukemia = tested on: SR leukemia
# DLD-1 colon = tested on: DLD-1 colon
# U251 CNS = tested on: U251 CNS
# UACC-62 melanoma = tested on: UACC-62 melanoma
# UO-31 renal = tested on: UO-31 renal
# SF-295 CNS = tested on: SF-295 CNS
# RXF-631 renal = tested on: RXF-631 renal
# OVCAR-5 ovarian = tested on: OVCAR-5 ovarian
# CAKI-1 renal = tested on: CAKI-1 renal
# T-47D breast = tested on: T-47D breast
# A498 renal = tested on: A498 renal
# SK-MEL-28 melanoma = tested on: SK-MEL-28 melanoma
# MCF7 breast = tested on: MCF7 breast
# TK-10 renal = tested on: TK-10 renal
# HOP-18 NSCLC = tested on: HOP-18 NSCLC
# HCT-116 colon = tested on: HCT-116 colon
# DU-145 prostate = tested on: DU-145 prostate
# OVCAR-4 ovarian = tested on: OVCAR-4 ovarian
# SK-MEL-5 melanoma = tested on: SK-MEL-5 melanoma
# NCI-H522 lung = tested on: NCI-H522 lung
# BT-549 breast = tested on: BT-549 breast
# MDA-MB-231 breast = tested on: MDA-MB-231 breast
# M19-MEL melanoma = tested on: M19-MEL melanoma
# NCI/ADR-RES ovarian = tested on: NCI/ADR-RES ovarian
# MDA-N = tested on: MDA-N
# MDA-MB-435 = tested on: MDA-MB-435
# HS 578T breast = tested on: HS 578T breast
# HCC-2998 colon = tested on: HCC-2998 colon
smiles,measurement,setting,value
CC1(CO)OC1COCc1ccccc1 (centres undefined),TGI,SF-268 CNS,> 100 µM
same,TGI,HL-60(TB) leukemia,> 100 µM
same,TGI,OVCAR-8 ovarian,> 100 µM
same,TGI,SK-OV-3 ovarian,> 100 µM
same,TGI,K-562 leukemia,> 100 µM
same,TGI,EKVX NSCLC,> 100 µM
same,TGI,786-0 renal,> 100 µM
same,TGI,KM12 colon,> 100 µM
same,TGI,DMS 273 small cell lung,> 100 µM
same,TGI,SN12C renal,> 100 µM
same,TGI,IGROV1 ovarian,> 100 µM
same,TGI,MALME-3M melanoma,> 100 µM
same,TGI,HCT-15 colon,> 100 µM
same,TGI,COLO 205 colon,> 100 µM
same,TGI,SF-539 CNS,> 100 µM
same,TGI,KM20L2 colon,> 100 µM
same,TGI,NCI-H226 lung,> 100 µM
same,TGI,ACHN renal,> 100 µM
same,TGI,RXF 393 renal,> 100 µM
same,TGI,HOP-92 NSCLC,> 100 µM
same,TGI,NCI-H460 lung,> 100 µM
same,TGI,SW-620 colon,> 100 µM
same,TGI,XF 498 CNS,> 100 µM
same,TGI,SNB-78 CNS,> 100 µM
same,TGI,UACC-257 melanoma,> 100 µM
same,TGI,M14 melanoma,> 100 µM
same,TGI,SNB-75 CNS,> 100 µM
same,TGI,NCI-H23 lung,> 100 µM
same,TGI,SNB-19 CNS,> 100 µM
same,TGI,HT29 colon,> 100 µM
same,TGI,LXFL 529 NSCLC,> 100 µM
same,TGI,OVCAR-3 ovarian,> 100 µM
same,TGI,LOX IMVI melanoma,> 100 µM
same,TGI,SK-MEL-2 melanoma,> 100 µM
same,TGI,A549 NSCLC,> 100 µM
same,TGI,CCRF-CEM leukemia,> 100 µM
same,TGI,DMS 114 small cell lung,> 100 µM
same,TGI,RPMI-8226 leukemia,> 100 µM
same,TGI,HOP-62 NSCLC,> 100 µM
same,TGI,MOLT-4 leukemia,> 100 µM
same,TGI,SR leukemia,> 100 µM
same,TGI,DLD-1 colon,> 100 µM
same,TGI,U251 CNS,> 100 µM
same,TGI,UACC-62 melanoma,> 100 µM
same,TGI,UO-31 renal,> 100 µM
same,TGI,SF-295 CNS,> 100 µM
same,TGI,RXF-631 renal,> 100 µM
same,TGI,OVCAR-5 ovarian,> 100 µM
S=c1nc(Oc2ccc(Cl)c(Cl)c2)[nH]c(=S)[nH]1,TGI,CAKI-1 renal,> 100 µM
same,TGI,T-47D breast,59.6 µM
same,TGI,SF-268 CNS,> 81.8 µM
same,TGI,A498 renal,77.6 µM
same,TGI,SK-MEL-28 melanoma,> 92.5 µM
same,TGI,HL-60(TB) leukemia,> 100 µM
same,TGI,OVCAR-8 ovarian,97.4 µM
same,TGI,SK-OV-3 ovarian,> 100 µM
same,TGI,K-562 leukemia,> 31.6 µM
same,TGI,EKVX NSCLC,> 93.9 µM
same,TGI,786-0 renal,> 100 µM
same,TGI,KM12 colon,33.6 µM
same,TGI,DMS 273 small cell lung,50 µM
same,TGI,SN12C renal,> 95.6 µM
same,TGI,IGROV1 ovarian,> 92.3 µM
same,TGI,MALME-3M melanoma,> 71.3 µM
same,TGI,HCT-15 colon,> 100 µM
same,TGI,COLO 205 colon,> 60.4 µM
same,TGI,MCF7 breast,> 100 µM
same,TGI,SF-539 CNS,> 73.1 µM
same,TGI,KM20L2 colon,> 100 µM
same,TGI,NCI-H226 lung,> 77.6 µM
same,TGI,ACHN renal,> 82.2 µM
same,TGI,TK-10 renal,> 100 µM
same,TGI,HOP-92 NSCLC,60.9 µM
same,TGI,HOP-18 NSCLC,> 100 µM
same,TGI,NCI-H460 lung,64.9 µM
same,TGI,SW-620 colon,> 100 µM
same,TGI,HCT-116 colon,> 60.9 µM
same,TGI,DU-145 prostate,> 100 µM
same,TGI,XF 498 CNS,65.6 µM
same,TGI,SNB-78 CNS,> 100 µM
same,TGI,OVCAR-4 ovarian,> 82.2 µM
same,TGI,UACC-257 melanoma,> 80 µM
same,TGI,M14 melanoma,> 100 µM
same,TGI,SNB-75 CNS,> 84.5 µM
same,TGI,SK-MEL-5 melanoma,> 55.6 µM
same,TGI,NCI-H522 lung,38.2 µM
same,TGI,NCI-H23 lung,> 63.3 µM
same,TGI,SNB-19 CNS,> 100 µM
same,TGI,HT29 colon,> 89.7 µM
same,TGI,BT-549 breast,> 100 µM
same,TGI,MDA-MB-231 breast,> 100 µM
same,TGI,LXFL 529 NSCLC,> 100 µM
same,TGI,OVCAR-3 ovarian,> 100 µM
same,TGI,LOX IMVI melanoma,37.8 µM
same,TGI,M19-MEL melanoma,56.5 µM
same,TGI,NCI/ADR-RES ovarian,> 100 µM
same,TGI,A549 NSCLC,61.4 µM
same,TGI,CCRF-CEM leukemia,> 87.5 µM
same,TGI,DMS 114 small cell lung,48.2 µM
same,TGI,MDA-N,> 100 µM
same,TGI,RPMI-8226 leukemia,51.5 µM
same,TGI,HOP-62 NSCLC,> 67.6 µM
same,TGI,MOLT-4 leukemia,> 69.6 µM
same,TGI,MDA-MB-435,> 100 µM
same,TGI,HS 578T breast,> 100 µM
same,TGI,SR leukemia,> 100 µM
same,TGI,DLD-1 colon,88.4 µM
same,TGI,U251 CNS,99.4 µM
same,TGI,UACC-62 melanoma,> 60.3 µM
same,TGI,UO-31 renal,71.2 µM
same,TGI,HCC-2998 colon,37.9 µM
same,TGI,SF-295 CNS,> 100 µM
same,TGI,RXF-631 renal,32.8 µM
same,TGI,OVCAR-5 ovarian,> 100 µM
